Key:
Experiment in all cases: relative viability (nuclei count vs DMSO), 5 days (fraction); higher = more cells survive
[1] = tested on: NCI-H596
Method in brief: (§1)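 A single step with final 0.05% Triton X-100, 1% formaldehyde and 1 ug/ml Hoechst fixed the cells and stained nuclei 5 days after treatment. Lung cancer cell lines in 1536-well plates had been treated by pin tool the day after seeding with one drug alone or a fixed anchor-drug dose plus five library-drug doses (not always all listed) in √10 steps, and nuclei were counted on 4× images. Relative viability is the ratio of nuclei in treated wells to nuclei in vehicle wells, taken as the median of duplicate plates.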

[2] = tested on: NCI-H1755
Method in brief: as §1

[3] = tested on: HARA
Method in brief: as §1

[4] = tested on: NCI-H1734
Method in brief: as §1

[5] = tested on: COR-L23
Method in brief: as §1

[6] = tested on: NCI-H2347
Method in brief: as §1

[7] = tested on: NCI-H441
Method in brief: as §1

[8] = tested on: HCC-366
Method in brief: as §1

[9] = tested on: NCI-H1437
Method in brief: as §1

[10] = tested on: SK-LU-1
Method in brief: as §1

[11] = tested on: CAL-12T
Method in brief: as §1

[12] = tested on: HOP-62
Method in brief: as §1

[13] = tested on: PC-3 [JPC-3]
Method in brief: as §1

[14] = tested on: RERF-LC-KJ
Method in brief: as §1

[15] = tested on: NCI-H1650
Method in brief: as §1

[16] = tested on: NCI-H3122
Method in brief: as §1

[17] = tested on: NCI-H1651
Method in brief: as §1

[18] = tested on: LK-2
Method in brief: as §1

[19] = tested on: UMC-11
Method in brief: as §1

[20] = tested on: NCI-H727
Method in brief: as §1

[21] = tested on: ABC-1
Method in brief: as §1

[22] = tested on: EMC-BAC-2
Method in brief: as §1

## CCNC(=O)c1noc(-c2cc(C(C)C)c(O)cc2O)c1-c1ccc(CN2CCOCC2)cc1 [Luminespib] + O=C(c1cc(Cc2n[nH]c(=O)c3ccccc23)ccc1F)N1CCN(C(=O)C2CC2)CC1 [Olaparib] (partner 8 µM)
[1]; first compound 0.002 µM
  relative viability: 0.752
[1]; first compound 0.006325 µM
  relative viability: 0.695
[1]; first compound 0.02 µM
  relative viability: 0.749
[1]; first compound 0.06325 µM
  relative viability: 0.617
[1]; first compound 0.2 µM
  relative viability: 0.602
[2]; first compound 0.002 µM
  relative viability: 0.917
[2]; first compound 0.006325 µM
  relative viability: 0.808
[2]; first compound 0.02 µM
  relative viability: 0.759
[2]; first compound 0.06325 µM
  relative viability: 0.817
[2]; first compound 0.2 µM
  relative viability: 0.794
[3]; first compound 0.002 µM
  relative viability: 0.425
[3]; first compound 0.006325 µM
  relative viability: 0.814
[3]; first compound 0.02 µM
  relative viability: 0.997
[3]; first compound 0.06325 µM
  relative viability: 0.146
[3]; first compound 0.2 µM
  relative viability: 0.102
[4]; first compound 0.002 µM
  relative viability: 0.646
[4]; first compound 0.006325 µM
  relative viability: 0.595
[4]; first compound 0.02 µM
  relative viability: 0.476
[4]; first compound 0.06325 µM
  relative viability: 0.152
[4]; first compound 0.2 µM
  relative viability: 0.13
[5]; first compound 0.002 µM
  relative viability: 0.371
[5]; first compound 0.006325 µM
  relative viability: 0.344
[5]; first compound 0.02 µM
  relative viability: 0.482
[5]; first compound 0.06325 µM
  relative viability: 0.0712
[5]; first compound 0.2 µM
  relative viability: 0.0572
[6]; first compound 0.002 µM
  relative viability: 0.631
[6]; first compound 0.006325 µM
  relative viability: 0.617
[6]; first compound 0.02 µM
  relative viability: 0.7
[6]; first compound 0.06325 µM
  relative viability: 0.408
[6]; first compound 0.2 µM
  relative viability: 0.296
[7]; first compound 0.002 µM
  relative viability: 0.524
[7]; first compound 0.006325 µM
  relative viability: 0.569
[7]; first compound 0.02 µM
  relative viability: 0.714
[7]; first compound 0.06325 µM
  relative viability: 0.119
[7]; first compound 0.2 µM
  relative viability: 0.117
[8]; first compound 0.002 µM
  relative viability: 0.401
[8]; first compound 0.006325 µM
  relative viability: 0.345
[8]; first compound 0.02 µM
  relative viability: 0.424
[8]; first compound 0.06325 µM
  relative viability: 0.0205
[8]; first compound 0.2 µM
  relative viability: 0.0254
[9]; first compound 0.002 µM
  relative viability: 0.806
[9]; first compound 0.006325 µM
  relative viability: 0.63
[9]; first compound 0.02 µM
  relative viability: 0.684
[9]; first compound 0.06325 µM
  relative viability: 0.259
[9]; first compound 0.2 µM
  relative viability: 0.211
[10]; first compound 0.002 µM
  relative viability: 0.538
[10]; first compound 0.006325 µM
  relative viability: 0.4
[10]; first compound 0.02 µM
  relative viability: 0.475
[10]; first compound 0.06325 µM
  relative viability: 0.187
[10]; first compound 0.2 µM
  relative viability: 0.179
[11]; first compound 0.002 µM
  relative viability: 0.671
[11]; first compound 0.006325 µM
  relative viability: 0.679
[11]; first compound 0.02 µM
  relative viability: 0.959
[11]; first compound 0.06325 µM
  relative viability: 0.136
[11]; first compound 0.2 µM
  relative viability: 0.182
[12]; first compound 0.002 µM
  relative viability: 0.533
[12]; first compound 0.006325 µM
  relative viability: 0.453
[12]; first compound 0.02 µM
  relative viability: 0.723
[12]; first compound 0.06325 µM
  relative viability: 0.0994
[12]; first compound 0.2 µM
  relative viability: 0.138
[13]; first compound 0.002 µM
  relative viability: 1.09
[13]; first compound 0.006325 µM
  relative viability: 1.04
[13]; first compound 0.02 µM
  relative viability: 0.863
[13]; first compound 0.06325 µM
  relative viability: 0.392
[13]; first compound 0.2 µM
  relative viability: 0.398
[14]; first compound 0.002 µM
  relative viability: 0.857
[14]; first compound 0.006325 µM
  relative viability: 0.934
[14]; first compound 0.02 µM
  relative viability: 0.49
[14]; first compound 0.06325 µM
  relative viability: 0.235
[14]; first compound 0.2 µM
  relative viability: 0.212
[15]; first compound 0.002 µM
  relative viability: 0.852
[15]; first compound 0.006325 µM
  relative viability: 0.786
[15]; first compound 0.02 µM
  relative viability: 0.686
[15]; first compound 0.06325 µM
  relative viability: 0.142
[15]; first compound 0.2 µM
  relative viability: 0.137
[16]; first compound 0.002 µM
  relative viability: 0.626
[16]; first compound 0.006325 µM
  relative viability: 0.567
[16]; first compound 0.02 µM
  relative viability: 0.68
[16]; first compound 0.06325 µM
  relative viability: 0.56
[16]; first compound 0.2 µM
  relative viability: 0.646
[17]; first compound 0.002 µM
  relative viability: 0.195
[17]; first compound 0.006325 µM
  relative viability: 0.177
[17]; first compound 0.02 µM
  relative viability: 0.251
[17]; first compound 0.06325 µM
  relative viability: 0.181
[17]; first compound 0.2 µM
  relative viability: 0.165
[18]; first compound 0.002 µM
  relative viability: 0.884
[18]; first compound 0.006325 µM
  relative viability: 0.89
[18]; first compound 0.02 µM
  relative viability: 0.519
[18]; first compound 0.06325 µM
  relative viability: 0.11
[18]; first compound 0.2 µM
  relative viability: 0.114
[19]; first compound 0.002 µM
  relative viability: 0.391
[19]; first compound 0.006325 µM
  relative viability: 0.403
[19]; first compound 0.02 µM
  relative viability: 0.401
[19]; first compound 0.06325 µM
  relative viability: 0.205
[19]; first compound 0.2 µM
  relative viability: 0.149
[20]; first compound 0.002 µM
  relative viability: 0.674
[20]; first compound 0.006325 µM
  relative viability: 0.767
[20]; first compound 0.02 µM
  relative viability: 0.695
[20]; first compound 0.06325 µM
  relative viability: 0.403
[20]; first compound 0.2 µM
  relative viability: 0.271
[21]; first compound 0.002 µM
  relative viability: 0.928
[21]; first compound 0.006325 µM
  relative viability: 1.02
[21]; first compound 0.02 µM
  relative viability: 0.526
[21]; first compound 0.06325 µM
  relative viability: 0.337
[21]; first compound 0.2 µM
  relative viability: 0.244
[22]; first compound 0.002 µM
  relative viability: 0.489
[22]; first compound 0.006325 µM
  relative viability: 0.482
[22]; first compound 0.02 µM
  relative viability: 0.471
[22]; first compound 0.06325 µM
  relative viability: 0.234
[22]; first compound 0.2 µM
  relative viability: 0.242

From the supplement of paper PMC10307832
